Laboratory results taken from patent US7507817B2, “Prostaglandin prodrugs” (Allergan, Inc., priority 2006, dated 2009).

How the values were obtained:
Assay type in all cases: in vivo
normotensive dogs [1] = assay: Ocular surface hyperemia (OSH) score in normotensive dogs; conditions: once daily for 5 days; for maximum OSH score: maximum at 6 h
Method: (§1) (Z)-7-[(1R,2S,3R,5R)-5-Chloro-2-(3,5-dichloro-phenoxymethyl)-3-hydroxy-cyclopentyl]-hept-5-enoic acid 2-hydroxy-ethyl ester (1) was tested in normotensive dogs at 0.1%, dosing once daily for 5 days. The maximum intraocular pressure (IOP) decrease from baseline was 6.6 mmHg (40%) at 78 h; the maximum ocular surface hyperemia (OSH) score was 0.9 at 50 h. This compound was also tested in laser-induced hypertensive monkeys, using one single day dose. At 0.1%, the maximum IOP decrease from baseline was 12.5 mmHg (33%) at […]
(§2) (Z)-7-[(1R,2S,3R,5R)-5-Chloro-2-(3,5-dichloro-phenoxymethyl)-3-hydroxy-cyclopentyl]-hept-5-enoic acid 2-morpholin-4-yl-ethyl ester (2) was tested in normotensive dogs at 0.1%, dosing once daily for 5 days. The maximum intraocular pressure (IOP) decrease from baseline was 5.1 mmHg (34%) at 78 h; the maximum ocular surface hyperemia (OSH) score was 0.9 at 30 h. This compound was also tested in laser-induced hypertensive monkeys, using one single day dose. At 0.1%, the maximum IOP decrease from baseline was 11.9 mmHg (32%) at 6 h.
(§3) (Z)-7-[(1R,2S,3R,5R)-5-Chloro-2-(3,5-dichloro-phenoxymethyl)-3-hydroxy-cyclopentyl]-hept-5-enoic acid was tested at multiple concentrations in normotensive dogs, dosing once daily for 5 days. At 0.05%, the maximum IOP decrease from baseline was 4.3 mmHg (30%) at 6 h; the maximum OSH score was 0.6 at 6 h. At 0.1%, the maximum IOP decrease from baseline was 4.8 mmHg (34%) at 102 h; the maximum OSH score was 1.3 at 6 h. This compound was also tested in laser-induced hypertensive monkeys, using one single day dose. At 0.1%, the maximum IOP decrease from baseline was 6 mmHg (19%) at 6 h.
(§4) (Z)-7-[(1R,2S,3R,5R)-5-Chloro-2-(3,5-dichloro-phenoxymethyl)-3-hydroxy-cyclopentyl]-hept-5-enoic acid isopropyl ester was tested at multiple concentrations in normotensive dogs, dosing once daily for 5 days. At 0.01%, the maximum intraocular pressure (IOP) decrease from baseline was 1.1 mmHg (7%) at 2 h; the maximum ocular surface hyperemia (OSH) score was 0.6 at 74 h. At 0.05%, the maximum intraocular pressure (IOP) decrease from baseline was 2.8 mmHg (18%) at 6 h; the maximum ocular surface hyperemia (OSH) score was 0.6 at 74 h. This compound was also tested in laser-induced hypertensive monkeys, using one single day dose. At 0.01%, the maximum IOP decrease from baseline was 6.8 mmHg (18%) at 6 h. At 0.05%, the maximum IOP decrease from baseline was 6 mmHg (16%) at 2 h.

normotensive dogs [2] = assay: Intraocular pressure (IOP) decrease in normotensive dogs; conditions: once daily for 5 days
Method: as §1, §2, §3, §4

[3] = system: laser-induced hypertensive monkeys; assay: IOP decrease in laser-induced hypertensive monkeys; conditions: one single day dose
Method: as §1, §2, §3, §4

CC(C)OC(=O)CCC/C=C\C[C@@H]1[C@@H](COc2cc(Cl)cc(Cl)c2)[C@H](O)C[C@H]1Cl [(Z)-7-[(1R,2S,3R,5R)-5-Chloro-2-(3,5-dichloro-phenoxymethyl)-3-hydroxy-cyclopentyl]-hept-5-enoic acid isopropyl ester]
maximum ocular surface hyperemia (OSH) score (normotensive dogs [1]; 0.01%, maximum at 74 h): 0.6
maximum ocular surface hyperemia (OSH) score (normotensive dogs [1]; 0.05%, maximum at 74 h): 0.6
maximum intraocular pressure (IOP) decrease from baseline (normotensive dogs [2]; 0.01%, maximum at 2 h): 1.1 mmHg
maximum intraocular pressure (IOP) decrease from baseline (percent) (normotensive dogs [2]; 0.01%, maximum at 2 h): 7%
maximum IOP decrease from baseline (normotensive dogs [2]; 0.05%, maximum at 6 h): 2.8 mmHg
maximum IOP decrease from baseline (percent) (normotensive dogs [2]; 0.05%, maximum at 6 h): 18%
maximum IOP decrease from baseline ([3]; 0.01%, maximum at 6 h): 6.8 mmHg
maximum IOP decrease from baseline (percent) ([3]; 0.01%, maximum at 6 h): 18%
maximum IOP decrease from baseline ([3]; 0.05%, maximum at 2 h): 6 mmHg
maximum IOP decrease from baseline (percent) ([3]; 0.05%, maximum at 2 h): 16%

O=C(O)CCC/C=C\C[C@@H]1[C@@H](COc2cc(Cl)cc(Cl)c2)[C@H](O)C[C@H]1Cl [(Z)-7-[(1R,2S,3R,5R)-5-Chloro-2-(3,5-dichloro-phenoxymethyl)-3-hydroxy-cyclopentyl]-hept-5-enoic acid]
maximum OSH score (normotensive dogs [1]; 0.05%): 0.6
maximum OSH score (normotensive dogs [1]; 0.1%): 1.3
maximum IOP decrease from baseline (normotensive dogs [2]; 0.05%, maximum at 6 h): 4.3 mmHg
maximum IOP decrease from baseline (percent) (normotensive dogs [2]; 0.05%, maximum at 6 h): 30%
maximum IOP decrease from baseline (normotensive dogs [2]; 0.1%, maximum at 102 h): 4.8 mmHg
maximum IOP decrease from baseline (percent) (normotensive dogs [2]; 0.1%, maximum at 102 h): 34%
maximum IOP decrease from baseline ([3]; 0.1%, maximum at 6 h): 6 mmHg
maximum IOP decrease from baseline (percent) ([3]; 0.1%, maximum at 6 h): 19%

O=C(CCC/C=C\C[C@@H]1[C@@H](COc2cc(Cl)cc(Cl)c2)[C@H](O)C[C@H]1Cl)OCCO [Compound 1, (Z)-7-[(1R,2S,3R,5R)-5-Chloro-2-(3,5-dichloro-phenoxymethyl)-3-hydroxy-cyclopentyl]-hept-5-enoic acid 2-hydroxy-ethyl ester]
maximum ocular surface hyperemia (OSH) score (normotensive dogs [1]; 0.1%, maximum at 50 h): 0.9
maximum intraocular pressure (IOP) decrease from baseline (normotensive dogs [2]; 0.1%, maximum at 78 h): 6.6 mmHg
maximum intraocular pressure (IOP) decrease from baseline (percent) (normotensive dogs [2]; 0.1%, maximum at 78 h): 40%
maximum IOP decrease from baseline ([3]; 0.1%, maximum at 4): 12.5 mmHg
maximum IOP decrease from baseline (percent) ([3]; 0.1%, maximum at 4): 33%

O=C(CCC/C=C\C[C@@H]1[C@@H](COc2cc(Cl)cc(Cl)c2)[C@H](O)C[C@H]1Cl)OCCN1CCOCC1 [Compound 2, (Z)-7-[(1R,2S,3R,5R)-5-Chloro-2-(3,5-dichloro-phenoxymethyl)-3-hydroxy-cyclopentyl]-hept-5-enoic acid 2-morpholin-4-yl-ethyl ester]
maximum ocular surface hyperemia (OSH) score (normotensive dogs [1]; 0.1%, maximum at 30 h): 0.9
maximum intraocular pressure (IOP) decrease from baseline (normotensive dogs [2]; 0.1%, maximum at 78 h): 5.1 mmHg
maximum intraocular pressure (IOP) decrease from baseline (percent) (normotensive dogs [2]; 0.1%, maximum at 78 h): 34%
maximum IOP decrease from baseline ([3]; 0.1%, maximum at 6 h): 11.9 mmHg
maximum IOP decrease from baseline (percent) ([3]; 0.1%, maximum at 6 h): 32%
